Measured values reported in patent publication US4421912A, “Cephalosporin derivatives” (Takeda Chemical Industries, Ltd., priority 1973, dated 1983).
In brackets after ≈: the same amount, converted by molar mass. Read-outs that look alike come from different tables or passages of the source.

Assays:
E. coli 0-111 = test: Antibacterial spectra, agar dilution method; assay type: cell-based
Text: (§1) (mcg/ml., agar dilution method)
as §1
(§2) (mcg/ml, agar dilution method)
(§3) (mcg./ml., agar dilution method)

E. coli NIHJ JC-2 = test: Antibacterial spectra, agar dilution method; assay type: cell-based; conditions: Escherichia coli
Text: as §1, §1, §2, §3

S. aureus 1840 = test: Antibacterial spectra, agar dilution method; assay type: cell-based
Text: as §1, §1, §2, §3

S. aureus 209P = test: Antibacterial spectra, agar dilution method; assay type: cell-based; conditions: Staphylococcus aureus
Text: as §1, §1, §2, §3

E. coli T-7 = test: Antibacterial spectra, agar dilution method; assay type: cell-based; conditions: Escherichia coli
Text: (§4) |(mcg./ml., agar dilution method)

P. vulgaris IFO 3988 = test: Antibacterial spectra, agar dilution method; assay type: cell-based; conditions: Proteus vulgaris
Text: as §4

K. pneumoniae DT = test: Antibacterial spectra, agar dilution method; assay type: cell-based; conditions: Klebsiella pneumoniae
P. vulgaris Eb-57 = test: Antibacterial spectra, agar dilution method; assay type: cell-based; conditions: Proteus vulgaris
Text: |(mcg/ml., agar dilution method)

P. vulgaris Eb-58 = test: Antibacterial spectra, agar dilution method; assay type: cell-based; conditions: Proteus vulgaris, EB58, tables in Examples 13 and 16
Text: as §1, §2

P. morganii Eb53 = test: Antibacterial spectra, agar dilution method; assay type: cell-based; conditions: for MIC: Morganella morganii
Text: as §2, §3

Escherichia coli 0111 = test: Protective Effect on Infected Mice; assay type: in vivo; conditions: Escherichia coli, 0111, sc, 168 h, male ICR/SLC mice, i.p. E. coli 0111, single subcutaneous dose immediately after challenge, 7 days
Text: Protective Effect (ED50 * , mg/kg) on Infected Mice
*Test animals: male mice (ICR/SLC) 5 mice per group per single dose
Infection: intraperitoneally with Escherichia coli 0111
Administration: a single subcutaneous dose immediately after challenge
Observation period: 7 days
*Test animals: male mice (ICR/SLC) 5 mice per group single dose

[1] = Escherichia coli, 0111, E. coli 0-111, Table 11
[2] = Escherichia coli, 0111, E. coli 0-111, tables in the Examples
[3] = NIHJJC2, read-out: Antibacterial spectra, E. coli NIHJ JC-2, Table 11
[4] = NIHJJC2, read-out: Antibacterial spectra, E. coli NIHJ JC-2, tables in the Examples
[5] = Staphylococcus aureus, 1840, read-out: Antibacterial spectra, S. aureus 1840, Table 11
[6] = Staphylococcus aureus, 1840, read-out: Antibacterial spectra, S. aureus 1840, tables in the Examples
[7] = 209P, read-out: Antibacterial spectra, S. aureus 209P, Table 11
[8] = S. aureus 209P, tables in the Examples, read-out: Antibacterial spectra
[9] = T7, E. coli T-7, agar dilution method, Table 11, read-out: Antibacterial spectra
[10] = IFO3988, P. vulgaris IFO 3988, agar dilution method, Table 11, read-out: Antibacterial spectra
[11] = EB57, P. vulgaris Eb-57, agar dilution method, table in Example 10, read-out: Antibacterial spectra
[12] = P. morganii Eb53, agar dilution method, Table 11, read-out: Antibacterial spectra
[13] = P. morganii Eb53, agar dilution method, table in Example 16
[14] = Table 12, read-out: Protective Effect (ED50) on Infected Mice
[15] = 209P, read-out: Antibacterial spectra, S. aureus 209P, tables in the Examples
[16] = EB53, read-out: Antibacterial spectra
[17] = T7, read-out: Antibacterial spectra
[18] = Staphylococcus aureus, S. aureus 1840, Table 11, read-out: Antibacterial spectra

Row | SMILES | MIC (E. coli 0-111; [1]) [µg/mL] | MIC (E. coli NIHJ JC-2; [3]) [µg/mL] | MIC (S. aureus 1840; [5]) [µg/mL] | MIC (S. aureus 1840; [6]) [µg/mL] | MIC (S. aureus 209P; [7]) [µg/mL] | MIC (E. coli T-7; [9]) [µg/mL] | MIC (P. vulgaris IFO 3988; [10]) [µg/mL] | MIC (K. pneumoniae DT; Table 11) [µg/mL] | MIC (K. pneumoniae DT; tables in the Examples) [µg/mL] | MIC (P. morganii Eb53; [12]) [µg/mL] | ED50 (Escherichia coli 0111; Table 13, read-out: ED50) [mg/kg] | ED50 (Escherichia coli 0111; Table 14, read-out: ED50) [mg/kg] | MIC (P. morganii Eb53; [16]) [µg/mL] | further results
1 | O=C(Cc1cccs1)N[C@@H]1C(=O)N2C(C(=O)[O-])=C(C[n+]3ccccc3)CS[C@H]12 [Cephaloridine, reference compound] | 1.56 (≈ 3.75 µM) | 3.13 (≈ 7.53 µM) | 0.39 (≈ 0.939 µM) | 0.39 (≈ 0.939 µM) | ≤ 0.2 | > 100 | 6.25 (≈ 15 µM) | 1.56 (≈ 3.75 µM) | 3.12 (≈ 7.52 µM) | > 100 | 1.94 | 3.57 | – | MIC (E. coli 0-111; [2]): 3.12 µg/mL (≈ 7.52 µM); MIC (E. coli NIHJ JC-2; [4]): 6.25 µg/mL (≈ 15 µM); MIC (S. aureus 209P; [8]): 0.05 µg/mL (≈ 0.12 µM); MIC (P. vulgaris Eb-57; [11]): > 100 µg/mL; MIC (P. vulgaris Eb-58): 12.5 µg/mL (≈ 30.1 µM); Antibacterial spectra (P. morganii Eb53; [13]): > 100 µg/mL; ED50 (Escherichia coli 0111; [14]): 2.81 mg/kg
2 | Cc1nnc(SCC2=C(C(=O)O)N3C(=O)[C@@H](NC(=O)Cn4cnnn4)[C@H]3SC2)s1 [Cephazolin, reference compound] | 0.78 (≈ 1.72 µM) | 1.56 (≈ 3.43 µM) | 0.78 (≈ 1.72 µM) | 1.56 (≈ 3.43 µM) | ≤ 0.2 | 50 (≈ 110 µM) | 6.25 (≈ 13.8 µM) | 1.56 (≈ 3.43 µM) | 1.56 (≈ 3.43 µM) | 100 (≈ 220 µM) | – | 3.1 | – | MIC (E. coli 0-111; [2]): 1.56 µg/mL (≈ 3.43 µM); MIC (E. coli NIHJ JC-2; [4]): 1.56 µg/mL (≈ 3.43 µM); MIC (S. aureus 209P; [15]): 0.1 µg/mL (≈ 0.22 µM); MIC (S. aureus 209P; [8]): 0.01 µg/mL (≈ 0.022 µM); MIC (P. vulgaris Eb-57; [11]): 50 µg/mL (≈ 110 µM); MIC (P. vulgaris Eb-58): 6.25 µg/mL (≈ 13.8 µM); Antibacterial spectra (P. morganii Eb53; [13]): 100 µg/mL
3 | CN(C)CCSc1nnc(SCC2=C(C(=O)O)N3C(=O)C(NC(=O)Cc4csc(N)n4)C3SC2)s1 (stereo not shown) [Compound 9] | 0.39 (≈ 0.68 µM) | – | 0.78 (≈ 1.36 µM) | – | ≤ 0.2 | 50 (≈ 87.1 µM) | – | ≤ 0.2 | – | – | – | – | < 0.2 | MIC (E. coli NIHJ JC-2; NIHJJC2, E. coli NIHJ JC-2, Table 11, read-out: Antibacterial spectra): 1.56 µg/mL (≈ 2.72 µM); MIC (P. vulgaris IFO 3988; IFO3988, read-out: Antibacterial spectra): 6.25 µg/mL (≈ 10.9 µM); ED50 (Escherichia coli 0111; [14]): 0.812 mg/kg
4 | Nc1nc(CC(=O)NC2C(=O)N3C(C(=O)O)=C(CSc4nnc(SCCS(=O)(=O)O)s4)CSC23)cs1 (stereo not shown) [Compound 12] | ≤ 0.2 | 0.78 (≈ 1.28 µM) | 1.56 (≈ 2.55 µM) | – | 0.39 (≈ 0.639 µM) | 50 (≈ 81.9 µM) | ≤ 0.2 | ≤ 0.2 | – | 25 (≈ 40.9 µM) | < 0.625 | – | – | –
5 | Nc1nc(CC(=O)NC2C(=O)N3C(C(=O)O)=C(CSc4nnc(SCC(=O)O)s4)CSC23)cs1 (stereo not shown) [Compound 15] | ≤ 0.2 | 0.78 (≈ 1.39 µM) | 1.56 (≈ 2.78 µM) | – | 0.78 (≈ 1.39 µM) | 25 (≈ 44.6 µM) | ≤ 0.2 | ≤ 0.2 | – | 3.13 (≈ 5.58 µM) | < 0.625 | – | – | –
6 | NC(=O)CSc1nnc(SCC2=C(C(=O)[O-])N3C(=O)C(NC(=O)Cc4csc(N)n4)[C@H]3SC2)s1.[Na+] (stereo partly shown) [Compound 16, sodium 7-[2-(2-aminothiazol-4-yl)acetamido]-3-(2-carbamoylmethylthio-1,3,4-thiadiazol-5-yl)thiomethyl-3-cephem-4-carboxylate] | ≤ 0.2 | 0.39 | 0.78 | – | ≤ 0.2 | – | ≤ 0.2 | ≤ 0.2 | – | – | < 0.625 | – | 1.56 | MIC (E. coli T-7; [17]): 12.5 µg/mL
7 | Nc1nc(CC(=O)NC2C(=O)N3C(C(=O)O)=C(CSc4nnc(NCCO)s4)CSC23)cs1 (stereo not shown) [Compound 17] | ≤ 0.2 | 0.39 (≈ 0.736 µM) | – | – | 0.39 (≈ 0.736 µM) | – | 0.39 (≈ 0.736 µM) | ≤ 0.2 | – | – | < 0.625 | – | 0.78 (≈ 1.47 µM) | MIC (S. aureus 1840; [18]): 3.13 µg/mL (≈ 5.91 µM); MIC (E. coli T-7; [17]): 12.5 µg/mL (≈ 23.6 µM)
8 | CN(C)CCNc1nnc(SCC2=C(C(=O)O)N3C(=O)C(NC(=O)Cc4csc(N)n4)C3SC2)s1 (stereo not shown) [Compound 18] | ≤ 0.2 | 0.78 (≈ 1.4 µM) | – | – | 1.56 (≈ 2.8 µM) | – | 1.56 (≈ 2.8 µM) | ≤ 0.2 | – | – | < 0.625 | – | 1.56 (≈ 2.8 µM) | MIC (S. aureus 1840; [18]): 3.13 µg/mL (≈ 5.62 µM); MIC (E. coli T-7; [17]): 6.25 µg/mL (≈ 11.2 µM)
9 | Nc1nc(CC(=O)NC2C(=O)N3C(C(=O)O)=C(CSc4nnc(CC(=O)O)s4)CSC23)cs1 (stereo not shown) [Compound 19, disodium 7-[2-(2-aminothiazol-4-yl)acetamido]-3-(2-carboxymethyl-1,3,4-thiadiazol-5-yl)thiomethyl-3-cephem-4-carboxylate] | ≤ 0.2 | 0.78 | – | – | 0.78 | 25 | ≤ 0.2 | ≤ 0.2 | – | – | – | – | 0.78 | MIC (S. aureus 1840; [18]): 3.13 µg/mL; ED50 (Escherichia coli 0111; [14]): < 0.625 mg/kg
10 | NC(=O)Cc1nnc(SCC2=C(C(=O)[O-])N3C(=O)C(NC(=O)Cc4csc(N)n4)[C@H]3SC2)s1.[Na+] (stereo partly shown) [Compound 21, sodium 7-[2-(2-aminothiazol-4-yl)acetamido]-3-(2-carbamoylmethyl-1,3,4-thiadiazol-5-yl)thiomethyl-3-cephem-4-carboxylate] | ≤ 0.2 | 0.39 | 1.56 | – | ≤ 0.2 | – | ≤ 0.2 | ≤ 0.2 | – | – | – | – | 0.78 | MIC (E. coli T-7; [17]): 25 µg/mL; ED50 (Escherichia coli 0111; [14]): < 0.625 mg/kg
11 | Cn1cnnc1SCC1=C(C(=O)O)N2C(=O)C(NC(=O)Cc3csc(N)n3)C2SC1 (stereo not shown) [Compound 39] | < 0.05 | 0.2 (≈ 0.428 µM) | 1.56 (≈ 3.34 µM) | – | 0.78 (≈ 1.67 µM) | 25 (≈ 53.5 µM) | – | 0.1 (≈ 0.214 µM) | – | 25 (≈ 53.5 µM) | – | 0.73 | – | –
12 | CC(=O)OCC1=C(C(=O)O)N2C(=O)C(NC(=O)Cc3csc(N)n3)C2SC1 (stereo not shown) [Example 10, sodium 7-[2-(2-aminothiazol-4-yl)acetamido]-3-acetoxymethyl-3-cephem-4-carboxylat] | – | – | – | 1.56 | – | – | – | – | < 0.78 | – | – | – | – | MIC (E. coli NIHJ JC-2; NIHJJC2, E. coli NIHJ JC-2, tables in the Examples, read-out: Antibacterial spectra): 1.56 µg/mL; MIC (S. aureus 209P; [15]): < 0.78 µg/mL; MIC (P. vulgaris Eb-57; EB57, read-out: Antibacterial spectra): < 0.78 µg/mL
13 | Nc1nc(CC(=O)NC2C(=O)N3C(C(=O)O)=C(CSc4nncs4)CSC23)cs1 (stereo not shown) [Example 13, sodium 7-[2-(2-aminothiazol-4-yl)-acetamido]-3-(1,3,4-thiadiazol-2-yl)thiomethyl-3-cephem-4-carboxylate] | – | – | – | < 0.78 | – | – | – | – | < 0.78 | – | – | 2.38 | – | MIC (E. coli 0-111; [2]): < 0.78 µg/mL; MIC (S. aureus 209P; [15]): < 0.78 µg/mL; MIC (P. vulgaris Eb-58): < 0.78 µg/mL
14 | Cn1nnnc1SCC1=C(C(=O)O)N2C(=O)C(NC(=O)Cc3csc(N)n3)C2SC1 (stereo not shown) [Example 16, sodium 7-[2-(2-aminothiazol-4-yl)acetamido]-3-(1-methyltetrazol-5-yl)thiomethyl-3-cephem-4-carboxylate] | – | – | – | 0.78 | – | – | – | – | < 0.1 | – | – | 0.89 | – | MIC (E. coli 0-111; [2]): 0.2 µg/mL; MIC (E. coli NIHJ JC-2; [4]): 0.39 µg/mL; MIC (S. aureus 209P; [15]): 0.39 µg/mL; MIC (P. vulgaris Eb-58): 0.39 µg/mL; MIC (P. morganii Eb53; P. morganii Eb53, agar dilution method, table in Example 16, read-out: Antibacterial spectra): 3.12 µg/mL
